In ChEMBL document CHEMBL1909046, “DrugMatrix in vitro pharmacology data” one finds IC50 and Ki data, which are given here for seven molecules.

SMILES strings stand for the structures.

Sequence of Receptor tyrosine-protein kinase erbB-2 (P04626 whole entry): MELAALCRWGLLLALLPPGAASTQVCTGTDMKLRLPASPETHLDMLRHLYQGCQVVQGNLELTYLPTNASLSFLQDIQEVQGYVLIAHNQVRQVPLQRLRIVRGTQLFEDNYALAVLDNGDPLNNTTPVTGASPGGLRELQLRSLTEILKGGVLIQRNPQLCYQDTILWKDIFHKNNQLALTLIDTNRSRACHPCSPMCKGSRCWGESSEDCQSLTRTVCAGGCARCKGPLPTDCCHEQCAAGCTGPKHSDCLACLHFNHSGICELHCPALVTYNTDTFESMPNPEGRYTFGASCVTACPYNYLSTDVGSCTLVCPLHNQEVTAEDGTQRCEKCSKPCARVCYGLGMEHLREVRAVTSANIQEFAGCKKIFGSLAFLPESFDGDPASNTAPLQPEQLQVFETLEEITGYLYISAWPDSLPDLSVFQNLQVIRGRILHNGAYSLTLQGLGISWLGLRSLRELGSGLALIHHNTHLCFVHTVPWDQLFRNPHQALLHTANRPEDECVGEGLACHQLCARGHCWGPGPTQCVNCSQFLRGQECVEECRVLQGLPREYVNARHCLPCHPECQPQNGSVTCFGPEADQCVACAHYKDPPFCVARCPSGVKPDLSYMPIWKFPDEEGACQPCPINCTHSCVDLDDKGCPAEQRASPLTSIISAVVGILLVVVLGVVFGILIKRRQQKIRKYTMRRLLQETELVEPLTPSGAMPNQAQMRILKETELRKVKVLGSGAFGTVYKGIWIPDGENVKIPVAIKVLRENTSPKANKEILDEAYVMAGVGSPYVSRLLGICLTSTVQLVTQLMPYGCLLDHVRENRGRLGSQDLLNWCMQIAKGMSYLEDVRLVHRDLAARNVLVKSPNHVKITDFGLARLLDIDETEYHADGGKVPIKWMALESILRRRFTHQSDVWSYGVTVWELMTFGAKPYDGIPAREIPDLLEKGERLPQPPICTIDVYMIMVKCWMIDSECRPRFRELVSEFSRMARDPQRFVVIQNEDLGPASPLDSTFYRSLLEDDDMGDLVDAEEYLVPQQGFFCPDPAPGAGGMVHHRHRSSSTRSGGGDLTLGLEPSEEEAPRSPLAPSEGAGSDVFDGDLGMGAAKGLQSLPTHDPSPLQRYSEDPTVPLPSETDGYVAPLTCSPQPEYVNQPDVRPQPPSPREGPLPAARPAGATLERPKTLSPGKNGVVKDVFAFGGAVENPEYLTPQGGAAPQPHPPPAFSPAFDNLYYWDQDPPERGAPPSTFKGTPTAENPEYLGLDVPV
Sequence of Cytochrome P450 2E1 (P05181 whole entry): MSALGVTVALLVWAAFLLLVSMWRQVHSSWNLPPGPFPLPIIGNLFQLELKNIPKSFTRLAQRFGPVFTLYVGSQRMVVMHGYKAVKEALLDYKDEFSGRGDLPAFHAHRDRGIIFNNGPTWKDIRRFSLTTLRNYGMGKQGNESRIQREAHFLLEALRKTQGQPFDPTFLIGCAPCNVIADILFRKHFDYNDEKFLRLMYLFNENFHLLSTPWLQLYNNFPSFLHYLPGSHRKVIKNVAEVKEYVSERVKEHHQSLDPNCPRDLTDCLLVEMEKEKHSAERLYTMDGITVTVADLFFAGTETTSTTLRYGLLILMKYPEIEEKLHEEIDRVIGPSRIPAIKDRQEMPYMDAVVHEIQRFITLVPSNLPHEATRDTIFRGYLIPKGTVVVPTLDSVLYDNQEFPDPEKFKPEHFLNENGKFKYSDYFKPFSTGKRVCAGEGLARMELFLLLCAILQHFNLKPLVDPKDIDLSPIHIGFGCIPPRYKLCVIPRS

The first data set deals with Insulin receptor (Rattus norvegicus, UniProt P15127).
Sequence of Insulin receptor (P15127 27-759 limits assumed): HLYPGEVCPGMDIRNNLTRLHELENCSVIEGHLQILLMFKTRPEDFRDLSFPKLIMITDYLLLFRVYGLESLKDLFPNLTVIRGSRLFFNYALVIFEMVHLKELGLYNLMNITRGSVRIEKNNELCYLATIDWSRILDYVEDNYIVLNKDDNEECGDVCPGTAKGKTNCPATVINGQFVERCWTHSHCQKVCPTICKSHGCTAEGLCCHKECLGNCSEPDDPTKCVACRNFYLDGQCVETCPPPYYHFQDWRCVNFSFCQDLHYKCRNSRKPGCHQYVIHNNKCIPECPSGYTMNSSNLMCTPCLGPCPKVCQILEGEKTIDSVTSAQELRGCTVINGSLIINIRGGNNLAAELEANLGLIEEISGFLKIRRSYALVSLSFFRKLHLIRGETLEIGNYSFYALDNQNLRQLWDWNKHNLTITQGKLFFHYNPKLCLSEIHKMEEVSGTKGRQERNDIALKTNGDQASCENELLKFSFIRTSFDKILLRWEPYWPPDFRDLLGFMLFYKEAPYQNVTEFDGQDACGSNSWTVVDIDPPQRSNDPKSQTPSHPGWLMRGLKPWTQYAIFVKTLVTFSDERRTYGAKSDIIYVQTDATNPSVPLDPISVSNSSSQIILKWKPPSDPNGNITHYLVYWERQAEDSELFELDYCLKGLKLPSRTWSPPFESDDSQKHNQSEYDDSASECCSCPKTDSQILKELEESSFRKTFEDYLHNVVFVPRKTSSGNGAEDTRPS
Sequence of Insulin receptor (P15127 764-1383 limits assumed): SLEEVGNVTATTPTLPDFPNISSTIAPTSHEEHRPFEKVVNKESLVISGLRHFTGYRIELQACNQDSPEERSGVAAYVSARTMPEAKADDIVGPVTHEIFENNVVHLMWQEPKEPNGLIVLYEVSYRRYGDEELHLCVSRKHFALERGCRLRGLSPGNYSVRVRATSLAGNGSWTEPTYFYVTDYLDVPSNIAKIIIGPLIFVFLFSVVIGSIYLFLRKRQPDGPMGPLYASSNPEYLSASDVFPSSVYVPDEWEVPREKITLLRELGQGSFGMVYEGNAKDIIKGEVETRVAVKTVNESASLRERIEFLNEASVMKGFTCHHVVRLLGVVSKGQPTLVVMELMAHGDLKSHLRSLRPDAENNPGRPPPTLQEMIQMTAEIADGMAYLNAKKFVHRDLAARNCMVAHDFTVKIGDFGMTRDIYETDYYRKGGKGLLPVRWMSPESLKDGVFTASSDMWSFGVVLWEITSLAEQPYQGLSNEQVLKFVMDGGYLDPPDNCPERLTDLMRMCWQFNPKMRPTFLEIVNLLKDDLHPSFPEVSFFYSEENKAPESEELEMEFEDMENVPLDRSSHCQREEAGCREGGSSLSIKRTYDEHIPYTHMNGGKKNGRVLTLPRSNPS
Assay: not given
The data set is classed as cell membranes, Wistar, Liver, Membrane.
Settings: not given
In the case of `O=C1CC[C@H](N2C(=O)c3ccccc3C2=O)C(=O)N1`, the IC50 result is recorded as “Not Active”.
For the molecule `CC(=O)Nc1ccc(O)cc1` [ACETAMINOPHEN], the IC50 result is on record as “Not Active”.
On the same count and under the same terms, the result for `CCOC(=O)[C@H](CCc1ccccc1)N[C@H]1CCc2ccccc2N(CC(=O)O)C1=O` [BENAZEPRIL] reads “Not Active”.
Turning to `O=C1CC2(CCCC2)CC(=O)N1CCCCN1CCN(c2ncccn2)CC1` [BUSPIRONE], the IC50 result is listed as “Not Active”.
Same read-out and setting: the result for `ClC(Cl)Cl` [CHLOROFORM] reads “Not Active”.
Still for that read-out and setting: then `C[C@@H]1C[C@@H]([C@H](O)CC2CC(=O)NC(=O)C2)C(=O)[C@@H](C)C1` [CYCLOHEXIMIDE], with “Not Active”.
For the molecule `CC(=O)Nc1c(I)c(NC(C)=O)c(I)c(C(=O)O)c1I` [DIATRIZOIC ACID], the IC50 entry is “Not Active”.

System in the next data set: not listed separately
Description: DRUGMATRIX: Phosphodiesterase PDE3 enzyme inhibition (substrate: [3H]cAMP + cAMP). The data set is classed as tissue-based, Homo sapiens. Particulars: platelet; Not Active = under 50% inhibition at 10 µM.
Consider `O=C1CC[C@H](N2C(=O)c3ccccc3C2=O)C(=O)N1`, for which the IC50 result is “Not Active” and the Ki result was “Not Active”.
Turning to `CC(=O)Nc1ccc(O)cc1` [ACETAMINOPHEN], the IC50 entry is given as “Not Active” and the Ki result was “Not Active”.
Take `CCOC(=O)[C@H](CCc1ccccc1)N[C@H]1CCc2ccccc2N(CC(=O)O)C1=O` [BENAZEPRIL]: the IC50 entry was “Not Active” and the Ki entry is “Not Active”.
Take `O=C1CC2(CCCC2)CC(=O)N1CCCCN1CCN(c2ncccn2)CC1` [BUSPIRONE]: the IC50 entry is on record as “Not Active” and the Ki entry is recorded as “Not Active”.
`ClC(Cl)Cl` [CHLOROFORM]: the IC50 result is on record as “Not Active” and the Ki result is recorded as “Not Active”.
Consider `C[C@@H]1C[C@@H]([C@H](O)CC2CC(=O)NC(=O)C2)C(=O)[C@@H](C)C1` [CYCLOHEXIMIDE], for which the IC50 result is reported as “Not Active” and the Ki entry is given as “Not Active”.
For the molecule `CC(=O)Nc1c(I)c(NC(C)=O)c(I)c(C(=O)O)c1I` [DIATRIZOIC ACID], the IC50 result is “Not Active” and the Ki result is “Not Active”.

The target of another data set is T1, Receptor-type tyrosine-protein phosphatase C (Homo sapiens, UniProt P08575).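 Note: inhibition of CD45 enzyme activity measured using DiFMUP as substrate; in other assays of this panel Not Active means under 50% inhibition at 10 µM.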
T1 sequence (P08575 whole entry): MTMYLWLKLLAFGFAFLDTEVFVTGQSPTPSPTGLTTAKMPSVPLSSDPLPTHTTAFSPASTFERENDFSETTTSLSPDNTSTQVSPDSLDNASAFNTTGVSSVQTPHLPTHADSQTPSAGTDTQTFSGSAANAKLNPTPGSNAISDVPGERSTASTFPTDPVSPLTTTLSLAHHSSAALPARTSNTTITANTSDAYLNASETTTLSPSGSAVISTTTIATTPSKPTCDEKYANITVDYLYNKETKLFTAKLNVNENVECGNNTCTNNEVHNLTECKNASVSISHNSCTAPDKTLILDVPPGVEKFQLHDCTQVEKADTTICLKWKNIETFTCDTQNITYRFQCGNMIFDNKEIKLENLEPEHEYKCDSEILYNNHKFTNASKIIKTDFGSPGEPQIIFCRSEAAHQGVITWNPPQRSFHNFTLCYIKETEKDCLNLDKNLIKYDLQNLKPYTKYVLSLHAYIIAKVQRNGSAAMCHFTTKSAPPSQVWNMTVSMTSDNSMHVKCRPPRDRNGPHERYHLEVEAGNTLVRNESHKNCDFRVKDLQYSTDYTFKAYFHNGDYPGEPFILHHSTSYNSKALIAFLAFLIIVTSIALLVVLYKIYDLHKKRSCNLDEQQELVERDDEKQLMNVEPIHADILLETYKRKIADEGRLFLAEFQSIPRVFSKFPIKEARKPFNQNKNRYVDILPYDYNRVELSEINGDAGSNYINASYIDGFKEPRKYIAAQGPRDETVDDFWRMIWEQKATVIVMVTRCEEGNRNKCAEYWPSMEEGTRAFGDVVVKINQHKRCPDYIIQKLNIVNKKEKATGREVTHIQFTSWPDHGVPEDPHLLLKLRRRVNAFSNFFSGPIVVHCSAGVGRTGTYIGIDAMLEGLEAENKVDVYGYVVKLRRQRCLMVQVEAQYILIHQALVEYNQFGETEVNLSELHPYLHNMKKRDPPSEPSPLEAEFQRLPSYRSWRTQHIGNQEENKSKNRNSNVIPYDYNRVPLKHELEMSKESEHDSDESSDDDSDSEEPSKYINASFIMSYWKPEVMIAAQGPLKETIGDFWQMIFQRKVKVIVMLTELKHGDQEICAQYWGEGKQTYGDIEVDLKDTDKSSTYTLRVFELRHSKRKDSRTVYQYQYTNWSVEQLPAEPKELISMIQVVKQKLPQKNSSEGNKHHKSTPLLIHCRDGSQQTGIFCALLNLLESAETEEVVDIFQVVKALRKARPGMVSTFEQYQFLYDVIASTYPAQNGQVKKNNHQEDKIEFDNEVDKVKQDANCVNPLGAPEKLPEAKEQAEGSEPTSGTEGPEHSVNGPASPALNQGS
Assay: not given
Set-up: species or system Escherichia coli.
Settings: not given
Consider `O=C1CC[C@H](N2C(=O)c3ccccc3C2=O)C(=O)N1`, for which the IC50 result is given as “Not Active”.
As for `CC(=O)Nc1ccc(O)cc1` [ACETAMINOPHEN], the IC50 entry is recorded as “Not Active”.
Still for that read-out and setting: then `CCOC(=O)[C@H](CCc1ccccc1)N[C@H]1CCc2ccccc2N(CC(=O)O)C1=O` [BENAZEPRIL], with “Not Active”; and `O=C1CC2(CCCC2)CC(=O)N1CCCCN1CCN(c2ncccn2)CC1` [BUSPIRONE], with “Not Active”; and `ClC(Cl)Cl` [CHLOROFORM], with “Not Active”.
On the same count and under the same terms, then `C[C@@H]1C[C@@H]([C@H](O)CC2CC(=O)NC(=O)C2)C(=O)[C@@H](C)C1` [CYCLOHEXIMIDE], with “Not Active”; and `CC(=O)Nc1c(I)c(NC(C)=O)c(I)c(C(=O)O)c1I` [DIATRIZOIC ACID], with “Not Active”.

System in a further data set: not listed separately
Description: DRUGMATRIX: GABAA, Chloride Channel, TBOB radioligand binding (ligand: [3H] TBOB). Format: cell membranes, Rattus norvegicus, Wistar, Cerebral cortex, Membrane. Particulars: Not Active = under 50% inhibition at 10 µM.
With `O=C1CC[C@H](N2C(=O)c3ccccc3C2=O)C(=O)N1`, the IC50 result was “Not Active” and the Ki result is “Not Active”.
On to `CC(=O)Nc1ccc(O)cc1` [ACETAMINOPHEN], for which the IC50 result is listed as “Not Active” and the Ki entry is reported as “Not Active”.
In the case of `CCOC(=O)[C@H](CCc1ccccc1)N[C@H]1CCc2ccccc2N(CC(=O)O)C1=O` [BENAZEPRIL], the IC50 result is “Not Active” and the Ki entry is on record as “Not Active”.
For the molecule `O=C1CC2(CCCC2)CC(=O)N1CCCCN1CCN(c2ncccn2)CC1` [BUSPIRONE], the IC50 entry is given as “Not Active” and the Ki result is “Not Active”.
`ClC(Cl)Cl` [CHLOROFORM]: the IC50 entry is reported as “Not Active” and the Ki result is “Not Active”.
For the molecule `C[C@@H]1C[C@@H]([C@H](O)CC2CC(=O)NC(=O)C2)C(=O)[C@@H](C)C1` [CYCLOHEXIMIDE], the IC50 entry is given as “Not Active” and the Ki entry is reported as “Not Active”.
Regarding `CC(=O)Nc1c(I)c(NC(C)=O)c(I)c(C(=O)O)c1I` [DIATRIZOIC ACID], the IC50 entry was “Not Active” and the Ki result is listed as “Not Active”.

The target of the next data set is Melanocortin receptor 4 (Homo sapiens, UniProt P32245). Note: in other assays of this panel Not Active means under 50% inhibition at 10 µM.
Sequence of Melanocortin receptor 4 (P32245 whole entry): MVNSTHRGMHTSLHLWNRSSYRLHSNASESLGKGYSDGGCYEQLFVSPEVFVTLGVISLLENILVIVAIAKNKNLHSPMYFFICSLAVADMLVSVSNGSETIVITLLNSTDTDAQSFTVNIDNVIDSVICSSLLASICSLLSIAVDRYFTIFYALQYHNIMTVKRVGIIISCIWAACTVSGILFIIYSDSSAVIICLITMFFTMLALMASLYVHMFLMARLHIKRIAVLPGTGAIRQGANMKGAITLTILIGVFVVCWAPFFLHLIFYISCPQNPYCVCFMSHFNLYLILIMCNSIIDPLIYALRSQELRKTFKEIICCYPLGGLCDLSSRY
Assay: not given
The data set is classed as cell membranes, Membrane. Particulars: hek293.
For the molecule `O=C1CC[C@H](N2C(=O)c3ccccc3C2=O)C(=O)N1`, the IC50 result is “Not Active”.
The same measure, in the same setting: then `CC(=O)Nc1ccc(O)cc1` [ACETAMINOPHEN], with “Not Active”.
As to `CCOC(=O)[C@H](CCc1ccccc1)N[C@H]1CCc2ccccc2N(CC(=O)O)C1=O` [BENAZEPRIL], the IC50 result was “Not Active”.
Take `O=C1CC2(CCCC2)CC(=O)N1CCCCN1CCN(c2ncccn2)CC1` [BUSPIRONE]: the IC50 entry was “Not Active”.
For `ClC(Cl)Cl` [CHLOROFORM], the IC50 entry was “Not Active”.
`C[C@@H]1C[C@@H]([C@H](O)CC2CC(=O)NC(=O)C2)C(=O)[C@@H](C)C1` [CYCLOHEXIMIDE]: the IC50 result is given as “Not Active”.
In the case of `CC(=O)Nc1c(I)c(NC(C)=O)c(I)c(C(=O)O)c1I` [DIATRIZOIC ACID], the IC50 entry is reported as “Not Active”.

The next data set has as its target Receptor tyrosine-protein kinase erbB-2 (Homo sapiens, UniProt P04626). Description: biochemical. The data set is classed as cell-based, Insect cells. Particulars: insect cells.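 Note: inhibition of HER2 kinase enzyme activity, measured with Poly(Glu:Tyr) as the phosphorylation substrate; in other assays of this panel Not Active means under 50% inhibition at 10 µM.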
Consider `O=C1CC[C@H](N2C(=O)c3ccccc3C2=O)C(=O)N1`, for which the IC50 entry is given as “Not Active”.
The same measure, in the same setting: then `CC(=O)Nc1ccc(O)cc1` [ACETAMINOPHEN], with “Not Active”.
For the molecule `CCOC(=O)[C@H](CCc1ccccc1)N[C@H]1CCc2ccccc2N(CC(=O)O)C1=O` [BENAZEPRIL], the IC50 entry was “Not Active”.
On to `O=C1CC2(CCCC2)CC(=O)N1CCCCN1CCN(c2ncccn2)CC1` [BUSPIRONE], for which the IC50 result is “Not Active”.
Turning to `ClC(Cl)Cl` [CHLOROFORM], the IC50 entry was “Not Active”.
For the molecule `C[C@@H]1C[C@@H]([C@H](O)CC2CC(=O)NC(=O)C2)C(=O)[C@@H](C)C1` [CYCLOHEXIMIDE], the IC50 result was “Not Active”.
With `CC(=O)Nc1c(I)c(NC(C)=O)c(I)c(C(=O)O)c1I` [DIATRIZOIC ACID], the IC50 result is “Not Active”.

The target in a further data set is T2, C-X-C chemokine receptor type 2 (Homo sapiens, UniProt P25025). Note: in other assays of this panel Not Active means under 50% inhibition at 10 µM.
T2 sequence (P25025 whole entry): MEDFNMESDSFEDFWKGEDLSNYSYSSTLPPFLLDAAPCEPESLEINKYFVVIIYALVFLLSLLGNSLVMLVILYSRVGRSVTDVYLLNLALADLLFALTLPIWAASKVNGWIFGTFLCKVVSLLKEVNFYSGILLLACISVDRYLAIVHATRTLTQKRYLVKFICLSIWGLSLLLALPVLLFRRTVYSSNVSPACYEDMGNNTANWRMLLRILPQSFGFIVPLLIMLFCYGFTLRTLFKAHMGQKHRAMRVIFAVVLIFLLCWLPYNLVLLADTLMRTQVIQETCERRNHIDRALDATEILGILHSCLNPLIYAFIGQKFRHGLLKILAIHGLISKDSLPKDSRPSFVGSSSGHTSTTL
Assay: not given
Format: cell membranes, Membrane. Particulars: cho-k1.
In the case of `O=C1CC[C@H](N2C(=O)c3ccccc3C2=O)C(=O)N1`, the IC50 entry is “Not Active”.
In the case of `CC(=O)Nc1ccc(O)cc1` [ACETAMINOPHEN], the IC50 entry is listed as “Not Active”.
With `CCOC(=O)[C@H](CCc1ccccc1)N[C@H]1CCc2ccccc2N(CC(=O)O)C1=O` [BENAZEPRIL], the IC50 result was “Not Active”.
Turning to `O=C1CC2(CCCC2)CC(=O)N1CCCCN1CCN(c2ncccn2)CC1` [BUSPIRONE], the IC50 entry is recorded as “Not Active”.
Consider `ClC(Cl)Cl` [CHLOROFORM], for which the IC50 entry was “Not Active”.
`C[C@@H]1C[C@@H]([C@H](O)CC2CC(=O)NC(=O)C2)C(=O)[C@@H](C)C1` [CYCLOHEXIMIDE]: the IC50 result is on record as “Not Active”.
As to `CC(=O)Nc1c(I)c(NC(C)=O)c(I)c(C(=O)O)c1I` [DIATRIZOIC ACID], the IC50 result was “Not Active”.

A further data set addresses Cytochrome P450 2E1 (Homo sapiens, UniProt P05181).
Assay: not given
Particulars: bti-tn-5b1-4.
For the molecule `O=C1CC[C@H](N2C(=O)c3ccccc3C2=O)C(=O)N1`, the IC50 entry is recorded as “Not Active” and the Ki result is “Not Active”.
`CC(=O)Nc1ccc(O)cc1` [ACETAMINOPHEN]: the IC50 entry is given as “Not Active” and the Ki entry is recorded as “Not Active”.
Turning to `CCOC(=O)[C@H](CCc1ccccc1)N[C@H]1CCc2ccccc2N(CC(=O)O)C1=O` [BENAZEPRIL], the IC50 entry is given as “Not Active” and the Ki result is given as “Not Active”.
With `O=C1CC2(CCCC2)CC(=O)N1CCCCN1CCN(c2ncccn2)CC1` [BUSPIRONE], the IC50 result is reported as “Not Active” and the Ki entry was “Not Active”.
On to `ClC(Cl)Cl` [CHLOROFORM], for which the IC50 result is recorded as “Not Active” and the Ki result was “Not Active”.
Turning to `CC(=O)Nc1c(I)c(NC(C)=O)c(I)c(C(=O)O)c1I` [DIATRIZOIC ACID], the IC50 entry is “Not Active” and the Ki entry is “Not Active”.
